Data published in paper PMC7324608 (Scientific Reports, 2020).
Residue numbers refer to the chain shown, from its start. Like-named read-outs stand apart in the source and are kept apart here.

Columns and labels:
HpHtrA [1] = target: T1, HpHtrA (Helicobacter pylori, UniProt G2J5T2); test: FRET peptide assay of HpHtrA activity; assay type: biochemical; conditions: 5 µM FRET peptide, 250 nM HpHtrA, 37 °C, 50 mM HEPES pH 7.4, read-out: IC50 of HpHtrA inhibition
T1 construct: (HpHtrA, G18-K475, UniProt G2J5T2); GST (N, cleaved yes); made in house; host or cells: E. coli BL21
T1 sequence (G2J5T2 18-475): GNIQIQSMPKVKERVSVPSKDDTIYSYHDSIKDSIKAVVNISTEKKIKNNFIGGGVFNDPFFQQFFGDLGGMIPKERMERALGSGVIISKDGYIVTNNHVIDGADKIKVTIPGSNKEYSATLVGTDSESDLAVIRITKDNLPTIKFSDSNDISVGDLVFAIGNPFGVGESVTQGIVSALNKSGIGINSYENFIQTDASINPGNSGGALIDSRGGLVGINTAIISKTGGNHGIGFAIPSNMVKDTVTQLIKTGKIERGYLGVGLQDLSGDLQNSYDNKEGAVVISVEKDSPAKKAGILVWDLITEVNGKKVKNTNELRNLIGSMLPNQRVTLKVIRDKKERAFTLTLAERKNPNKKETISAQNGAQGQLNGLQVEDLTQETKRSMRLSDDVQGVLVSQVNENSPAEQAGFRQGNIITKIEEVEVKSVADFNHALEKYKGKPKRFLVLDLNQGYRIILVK
Description: For the establishment of a FRET-based assay for the quantification of the HpHtrA activity, the 2-Abz/3-nitrotyrosine FRET pair[53]–[55] was introduced into the sequence AQRVAF: the fluorophore (2-Abz, Ex/Em 320/435 nm) was coupled at the N-terminus, whereas the quencher (3-nitrotyrosine, Ex 425 nm[56]) was positioned at the C-end. The FRET activity of this peptide was first confirmed by measuring the fluorescence emission in the range 400–450 nm before and after the trypsin-mediated cleavage of the peptide bond R_V (Fig. S3). The measurements were performed in a black, flat-bottom 96-well plate (Nunc, Thermo Scientific, Schwerte, Germany) at 37 °C. 5 µM of the peptide were incubated with 250 nM HpHtrA and 125 nM trypsin in 50 mM HEPES buffer (pH 7.4). […] Cleavage of the peptide leads to increasing fluorescence, which was measured in a plate reader (Infinite 200 PRO, TECAN, Groedig, Austria) with a filter setting of 320 nm/425 nm (Ex/Em). Statistical analysis was performed with GraphPad Prism software (Vers. 8.0.2). […] Three independent experiments containing three technical replicates were analyzed for every sample. Significance is indicated as non-significant (ns) for p > 0.05, * for p < 0.05, ** for p < 0.01, *** for p < 0.001, and **** for p < 0.0001.

HpHtrA [2] = target: T1, HpHtrA; test: in vitro E-cadherin (hCdh1) cleavage by HpHtrA (Western blot); assay type: biochemical; conditions: 50 ng hCdh1, 250 ng HpHtrA, 16 h, 37 °C; for effect on HpHtrA-mediated hCdh1 cleavage/fragmentation: 1 mM
Description: The proteins were separated by SDS-PAGE and visualized by staining with Coomassie Brilliant Blue G250 (Lactan, Vienna, Austria). […] Proteins were separated using SDS-PAGE and blotted onto a nitrocellulose membrane. Human Cdh1 was detected by an antibody recognizing the EC5 domain of hCdh1 (Abcam, Cambridge, UK) and a polyclonal serum was used to detect HpHtrA[22]. Independent experiments were repeated at least three times.

BbHtrA = tested on: BbHtrA; design: method as in PMID 26480895; conditions: cited from earlier work
HpHtrA D168A = target: T2, HpHtrA D168A (Helicobacter pylori, UniProt G2J5T2, D168A); test: thermal shift assay; assay type: binding; design: (HpHtrA, G18-K475, UniProt G2J5T2); GST (N, cleaved yes); made in house; host or cells: E. coli BL21
T2 sequence (G2J5T2 18-475 D168A): T1 sequence (G2J5T2 18-475) with D151A
Experimental: (§1) Recombinant HpHtrA proteins (wt, S164A, D165A, S166A, D168A) in 50 mM HEPES buffer (pH 7.4) were mixed with SYPRO Orange (Sigma-Aldrich, Vienna, Austria) to final concentrations of 4 µM HpHtrA and 7 × SYPRO Orange in a 96-well PCR plate. […] Fluorescence data was collected using an Applied Bioscience StepOne Plus PCR cycler (Thermo Fisher Scientific, Schwerte, Germany) during a temperature ramp from 25–95 °C (0.5 °C per min) with a 4 min hold at 25 °C and 95 °C. SYPRO Orange binds to exposed hydrophobic regions within the denatured HpHtrA proteins, which increases the fluorescence of the dye[57],[58]. The fluorescence emission signal can then be used to determine the melting temperature of the protein, which is located at the infliction point of the fluorescence signal curve. The experiment was performed in triplicates.

HpHtrA wt = target: T3, HpHtrA wt (Helicobacter pylori, UniProt G2J5T2); test: thermal shift assay; assay type: binding; design: (HpHtrA, G18-K475, UniProt G2J5T2); GST (N, cleaved yes); made in house; host or cells: E. coli BL21
T3 sequence (G2J5T2 18-475): T1 sequence (G2J5T2 18-475)
Experimental: as §1

SMILES | IC50 (HpHtrA [1]; after 15 min) | IC50 (HpHtrA [1]; after 180 min) | effect on HpHtrA-mediated hCdh1 cleavage/fragmentation (HpHtrA [2]) | effect on casein degradation by BbHtrA (BbHtrA) | thermal destabilization (ΔTm) (HpHtrA D168A; compared with wt and S164A) | thermal destabilization (ΔTm) (HpHtrA wt; HpHtrA wt, higher concentrations of ion) | thermal stabilization (ΔTm) (HpHtrA wt; HpHtrA wt, low concentrations of ion) | concentration that clearly inhibited HpHtrA-mediated hCdh1 fragmentation (HpHtrA [2]) | thermal stabilization (ΔTm) (HpHtrA D168A; low/increasing concentrations of ion) | concentration at which HpHtrA wt was stabilized (HpHtrA wt; 4 µM HpHtrA wt, SYPRO Orange, 25–95 °C)
[Cu+2] [Cu^++, CuCl2] | 295 nM | 937 nM | strongly decreased | similarly inhibited | more strongly destabilized | destabilized | stabilized |  |  | 
[Zn+2] [Zn^++, ZnCl2] | 650 nM | 2570 nM | strongly decreased | similarly inhibited |  |  |  | 50 µM | did not stabilize | approximately 10 µM
